According to patent US11998577B2, “Methods for increasing growth of beneficial bacteria in the gastrointestinal tract” (ABBOTT LABORATORIES, priority 2017, dated 2024):

Tests used:
genus Bifidobacterium = assay: Fecal fermentation, quantification of genus Bifidobacterium by real-time PCR; assay type: cell-based; details: faecal slurry of formula-fed baby, 37° C., pH 5.5, anaerobic; 2′-FL at both daily (DD) and per intake (DI) doses; p<0.05 vs blend (DD) and blend (DI)
Procedure: (§1) Example 2: A series of experiments were carried out to determine the effects of providing 2′-FL, lutein, and RRR-alpha-tocopherol on bacterial growth. Fecal fermentations were carried out by using 3 ml fermentations in 10 ml fermentor (24 multi-well plate; μ-24 Bioreactor, Applikon Biotechnology). Fresh faecal sample came from a formula (without prebiotic or probiotic)-fed baby. Stools were vacuum stored in refrigerated conditions until the fermentation. Fresh feces were weighed and dissolved in Mc Bain and MacFarlane medium (1:5) to hydrate them. Three milliliters of the homogenized mixture (faecal slurry) were inoculated in each fermenter. In each case, prebiotic (2′-FL), RRR-alpha-tocopherol (vitamin E) and lutein were added at different dosage (Table 4). […] Anaerobiosis, temperature (37° C.) and pH levels (pH 5.5) were maintained during the assay and monitored throughout the study. […] For quantification, previous extracted DNA was used. Real-time PCR was used to quantify genera Bifidobacterium and Lactobacillus, and B. longum and L. fermentum species. In the case of genus Bifidobacterium and B. longum, quantification was performed with primers described by Matsuki et al.1. Lactobacillus group was quantified with primers described by Byun et al.2. Lactobacillus fermentum was quantified with the aid of primers designed by Matsuda et al.3 Nucleotide sequences of primers are listed in Table 5. […]

L. fermentum = assay: Fecal fermentation, quantification of L. fermentum species by real-time PCR; assay type: cell-based, Lactobacillus fermentum; details: faecal slurry fermentation; detection limit 1.00·103CFU/g slurry
Procedure: as §1

B. longum = assay: Fecal fermentation, quantification of B. longum species by real-time PCR; assay type: cell-based, Bifidobacterium longum; details: faecal slurry fermentation; 2′-FL at both daily (DD) and per intake (DI) doses; p<0.05 vs product (DD) and blend (DI)
Procedure: as §1

C[C@@H]1O[C@@H](O[C@H]2[C@H](O[C@H]3[C@H](O)[C@@H](O)C(O)O[C@@H]3CO)O[C@H](CO)[C@H](O)[C@@H]2O)[C@@H](O)[C@H](O)[C@@H]1O (stereo partly drawn) [2′-FL, 2′-fucosyllactose]
bifidobacteria numbers (real-time PCR, FIG. 1) (genus Bifidobacterium): significant higher bifidobacteria numbers
L. fermentum detection (real-time PCR, FIG. 4) (L. fermentum): reached detectable values
B. longum numbers (real-time PCR, FIG. 2) (B. longum): significant higher B. longum numbers
